Measurements from patent US12649723B2, “Carbonohydrazonoyl dicyanide compounds comprising 2 or more aryl or heteroaryl connected via linker and use thereof” (KOREA INSTITUTE OF SCIENCE AND TECHNOLOGY, priority 2020, dated 2026).

Experiments:
Tau-BiFC cells = experiment: Cell viability (cytotoxicity) in tau-BiFC cells, count of stained nuclei; assay type: cell-based; settings: Forskolin-only group = 100% cell viability; for Cell viability (% @10 μM): compound 10 μM; for Cell viability: compounds marked *: measured at 3 μM
Method in brief: (§1)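 Tau-BiFC cells were exposed for 48 h to compound (1, 3, 10 μM for screening; 0.03–30 μM for dose-response) plus 30 μM Forskolin to induce aggregation. BiFC fluorescence was normalised to Forskolin-only minus untreated controls, with IC50 from nonlinear regression. Viability was Hoechst-stained nuclei counts relative to Forskolin-only wells.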

tau protein = target: T1, tau protein (Homo sapiens, UniProt P10636); experiment: Tau-BiFC cell model: inhibition of tau protein aggregation; assay type: cell-based; settings: for IC50: Tau BiFC in cells, with Forskolin 30 μM, 48 hours; for remaining activity at 3 µM: compounds marked *: measured at 3 μM, read-out: Response
T1 construct: fused on or other part: Split fluorescent-protein halves for BiFC are fused to tau; In the published tau-BiFC line these are Venus VN173 and VC155
T1 sequence (P10636 2-441 isoform P10636-8 limits assumed): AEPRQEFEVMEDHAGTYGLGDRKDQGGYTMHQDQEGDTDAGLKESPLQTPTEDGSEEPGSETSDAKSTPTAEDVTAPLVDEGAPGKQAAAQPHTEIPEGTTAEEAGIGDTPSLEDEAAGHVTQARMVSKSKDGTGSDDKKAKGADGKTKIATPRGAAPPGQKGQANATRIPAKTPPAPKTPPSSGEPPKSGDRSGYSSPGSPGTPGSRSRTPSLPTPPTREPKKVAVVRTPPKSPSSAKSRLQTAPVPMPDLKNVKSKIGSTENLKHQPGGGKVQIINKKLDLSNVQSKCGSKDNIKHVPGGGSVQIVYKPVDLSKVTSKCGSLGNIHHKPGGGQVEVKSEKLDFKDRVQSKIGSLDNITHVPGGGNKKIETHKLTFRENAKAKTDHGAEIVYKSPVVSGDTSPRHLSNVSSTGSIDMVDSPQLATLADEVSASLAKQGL
Method in brief: as §1

[1] = Liver microsome stability; assay type: in vitro ADME, human; settings: amount of substrate remaining; compound 1 μM, 30 minutes, 37° C., NADPH
Procedure: (§2) The stability of liver microsomes due to the compounds prepared according to Examples 1 to 175 was confirmed. Specifically, four types of liver microsomes (human, dog, rat, and mouse, each 0.25 mg/mL), a 0.1 M phosphate buffer solution (pH 7.4), and each of the compounds at a concentration of 1 μM were mixed and pre-cultured at 37° C. for 5 minutes and further cultured at 37° C. for 30 minutes together with an NADPH generation system solution added thereto. Thereafter, the reaction was terminated by adding an acetonitrile solution containing an internal standard material (chloropropamide) and centrifuged for 5 minutes (14,000 rpm, 4° C.), and then a supernatant was injected into an LC-MS/MS system for analysis of substrate drugs to thereby evaluate metabolic stability due to 8 types of compounds.
(§3) The amount of the substrate remaining after the reaction was analyzed using the Shimadzu Nexera XR system and TSQ Vantage (Thermo). In an HPLC column, Kinetex XB-C18 (2.1 mm×100 mm, particle size of 2.6 μm; Phenomenex, USA) was used, and mobile phases were (A) distilled water containing 0.1% formic acid and (B) acetonitrile containing 0.1% formic acid. Analyst software (version 1.6.3) and Xcalibur (version 1.6.1) were used for data analysis.

[2] = Liver microsome stability; assay type: in vitro ADME, rat; settings: amount of substrate remaining; compound 1 μM, 30 minutes, 37° C., NADPH
Procedure: as §2, §3

[3] = Liver microsome stability; assay type: in vitro ADME, mouse; settings: amount of substrate remaining; compound 1 μM, 30 minutes, 37° C., NADPH
Procedure: as §2, §3

[4] = 48 h, Forskolin-only group = 100% tau protein-aggregated state

Row | Compound | Cell viability (% @10 μM) (Tau-BiFC cells) | remaining activity at 10 µM (tau protein; 48 h, compound 10 μM, BiFC fluorescence, Forskolin-only group = 100% tau protein-aggregated state, read-out: Response (% @10 μM)) | IC50 (tau protein) | Human (%) [1] | Cell viability (Tau-BiFC cells) | Rat (%) [2] | Mouse (%) [3] | remaining activity at 3 µM (tau protein; [4]) | Response (% @10 μM) (tau protein; compound 10 μM, BiFC fluorescence, Forskolin-only group = 100% tau protein-aggregated state)
1 | N#CC(C#N)=NNc1ccc(NC(=O)c2nc3ccccc3s2)nc1 [Compound 31, (6-(benzo[d]thiazole-2-carboxamido)pyridin-3-yl)carbonohydrazonoyl dicyanide] | 114.3% | 0% | 540 nM | 28.7% | – | – | – | – | –
2 | Cc1cnc(COc2ccc(NN=C(C#N)C#N)cc2C)cn1 [Compound 147, (3-methyl-4-((5-methylpyrazin-2-yl)methoxy)phenyl)carbonohydrazonoyl dicyanide] | – | – | 147 nM | 86.4% | 98% | 89% | 91.3% | -19% | –
3 | Cc1cc(NN=C(C#N)C#N)ccc1OCc1ccc(C(F)(F)F)cc1 [Compound 148, (3-methyl-4-(4-(trifluoromethyl)benzyloxy)phenyl)carbonohydrazonoyl dicyanide] | – | – | – | 77.4% | 114% | 86.3% | >100% | 22% | –
4 | Cc1cc(NN=C(C#N)C#N)ccc1OCc1cccnn1 [Compound 149, (3-methyl-4-(pyridazin-3-ylmethoxy)phenyl)carbonohydrazonoyl dicyanide] | – | – | 185 nM | 93.7% | 124% | 82.2% | 87.9% | -8% | –
5 | Cc1cc(NN=C(C#N)C#N)ccc1OCc1cc2ccccc2s1 [Compound 150, (4-(benzo[b]thiophen-2-ylmethoxy)-3-methylphenyl)carbonohydrazonoyl dicyanide] | – | – | – | 80.7% | 118% | 78.7% | 99.5% | 11% | –
6 | COc1cc(NN=C(C#N)C#N)ccc1OCc1ccc(C(F)(F)F)cc1 [Compound 155, (3-methoxy-4-(4-(trifluoromethyl)benzyloxy)phenyl)carbonohydrazonoyl dicyanide] | – | – | – | 95.4% | 80% | 82% | 90.8% | -43% | –
7 | Cc1cc(NN=C(C#N)C#N)ccc1OCc1nc2ccccc2s1 [Compound 157, (4-(benzo[d]thiazol-2-ylmethoxy)-3-methylphenyl)carbonohydrazonoyl dicyanide] | – | – | – | 69.1% | 124% | 46% | 33.2% | 8% | –
8 | COc1cc(NN=C(C#N)C#N)ccc1OCc1cc2ccccc2s1 [Compound 158, (4-(benzo[b]thiophen-2-ylmethoxy)-3-methoxyphenyl)carbonohydrazonoyl dicyanide] | – | – | 268 nM | 36.9% | 96% | 48.2% | 73.7% | -33% | –
9 | COc1cc(NN=C(C#N)C#N)ccc1OCc1nc2ccccc2[nH]1 [Compound 163, (4-((1H-benzo[d]imidazol-2-yl)methoxy)-3-methoxyphenyl)carbonohydrazonoyl dicyanide] | – | – | – | 86.9% | 106% | 71.3% | 59.5% | 91% | –
10 | COc1cc(NN=C(C#N)C#N)ccc1OCc1cccnn1 [Compound 164, (3-methoxy-4-(pyridazin-3-ylmethoxy)phenyl)carbonohydrazonoyl dicyanide] | – | – | 96 nM | 96.8% | 109% | 29.1% | 24.6% | -1% | –
11 | COc1cc(NN=C(C#N)C#N)ccc1OCc1nc2ccccc2s1 [Compound 165, (4-(benzo[d]thiazol-2-ylmethoxy)-3-methoxyphenyl)carbonohydrazonoyl dicyanide] | – | – | – | 42.4% | 113% | 42.4% | 69.6% | -40% | –
12 | COc1cc(NN=C(C#N)C#N)ccc1OCc1nc2ccccc2o1 [Compound 166, (4-(benzo[d]oxazol-2-ylmethoxy)-3-methoxyphenyl)carbonohydrazonoyl dicyanide] | – | – | 214 nM | 6.6% | 121% | 6.5% | 68.1% | -43% | –
13 | COc1cc(NN=C(C#N)C#N)ccc1OCc1cc[nH]n1 [Compound 168, (4-((1H-pyrazol-3-yl)methoxy)-3-methoxyphenyl)carbonohydrazonoyl dicyanide] | – | – | 132 nM | 54.8% | 123% | 44% | 77.8% | -17% | –
14 | COc1cc(NN=C(C#N)C#N)ccc1OCc1csc(C)n1 [Compound 171, (3-methoxy-4-((2-methylthiazol-4-yl)methoxy)phenyl)carbonohydrazonoyl dicyanide] | – | – | – | 79.2% | – | 80.3% | 70.3% | – | –
15 | COc1cc(NN=C(C#N)C#N)ccc1OCc1cccs1 [Compound 172, (3-methoxy-4-(thiophen-2-ylmethoxy)phenyl)carbonohydrazonoyl dicyanide] | – | – | – | 73.3% | – | 65.3% | 57.3% | – | –
16 | COc1cc(NN=C(C#N)C#N)ccc1OCc1cnn(C)c1 [Compound 174, (3-methoxy-4-((1-methyl-1H-pyrazol-4-yl)methoxy)phenyl)carbonohydrazonoyl dicyanide] | – | – | – | 72% | – | 54.3% | >100% | – | –
17 | (2-methoxy-4-(5-methylpyrazine-2-carboxamido)phenyl)carbonohydrazonoyl dicyanide [Compound 4] | 67% | – | – | – | – | – | – | – | 30.7%
